Measurements taken from patent US12187742B2 (XRAD Therapeutics, Inc., priority 2018, dated 2025).
Structures can show the parent of a compound that is named as a salt.

Assays:
ATM = ATM (Homo sapiens (Human), UniProt Q13315); assay: ATM in Cell Western Assay (pKAP1 in etoposide-treated MCF-7 cells); assay type: cell-based; conditions: pKAP1 in etoposide-treated MCF-7 cells
Procedure, shortened: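 Cells received compounds in a 10-dose, 3-fold series from a 1 μM final top concentration, then 100 μM etoposide, for 1 hr at 37° C. They were then fixed with paraformaldehyde and permeabilized with 0.1% Triton X-100. After immunostaining, plates were scanned on an infrared imager.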

DNA-PK = DNA-PK (Homo sapiens (Human), UniProt P78527); assay: DNA-PK Enzyme-Linked Immunosorbent Assay (phosphorylation of GST-p53 (1-101) peptide); assay type: biochemical; conditions: ELISA, 20 μM ATP
Procedure, shortened: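 ELISA with plate-bound GST-p53 (1-101) phosphorylated by DNA-PK (0.1 μg/mL final) with 20 μM ATP for 1 h at 25 °C. Compounds tested over 10 3-fold doses from 100 nM top final. Phospho-p53 Ser15 detected by antibody, HRP and TMB, absorbance at 450 nm.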

Sequence of ATM (Q13315 whole entry): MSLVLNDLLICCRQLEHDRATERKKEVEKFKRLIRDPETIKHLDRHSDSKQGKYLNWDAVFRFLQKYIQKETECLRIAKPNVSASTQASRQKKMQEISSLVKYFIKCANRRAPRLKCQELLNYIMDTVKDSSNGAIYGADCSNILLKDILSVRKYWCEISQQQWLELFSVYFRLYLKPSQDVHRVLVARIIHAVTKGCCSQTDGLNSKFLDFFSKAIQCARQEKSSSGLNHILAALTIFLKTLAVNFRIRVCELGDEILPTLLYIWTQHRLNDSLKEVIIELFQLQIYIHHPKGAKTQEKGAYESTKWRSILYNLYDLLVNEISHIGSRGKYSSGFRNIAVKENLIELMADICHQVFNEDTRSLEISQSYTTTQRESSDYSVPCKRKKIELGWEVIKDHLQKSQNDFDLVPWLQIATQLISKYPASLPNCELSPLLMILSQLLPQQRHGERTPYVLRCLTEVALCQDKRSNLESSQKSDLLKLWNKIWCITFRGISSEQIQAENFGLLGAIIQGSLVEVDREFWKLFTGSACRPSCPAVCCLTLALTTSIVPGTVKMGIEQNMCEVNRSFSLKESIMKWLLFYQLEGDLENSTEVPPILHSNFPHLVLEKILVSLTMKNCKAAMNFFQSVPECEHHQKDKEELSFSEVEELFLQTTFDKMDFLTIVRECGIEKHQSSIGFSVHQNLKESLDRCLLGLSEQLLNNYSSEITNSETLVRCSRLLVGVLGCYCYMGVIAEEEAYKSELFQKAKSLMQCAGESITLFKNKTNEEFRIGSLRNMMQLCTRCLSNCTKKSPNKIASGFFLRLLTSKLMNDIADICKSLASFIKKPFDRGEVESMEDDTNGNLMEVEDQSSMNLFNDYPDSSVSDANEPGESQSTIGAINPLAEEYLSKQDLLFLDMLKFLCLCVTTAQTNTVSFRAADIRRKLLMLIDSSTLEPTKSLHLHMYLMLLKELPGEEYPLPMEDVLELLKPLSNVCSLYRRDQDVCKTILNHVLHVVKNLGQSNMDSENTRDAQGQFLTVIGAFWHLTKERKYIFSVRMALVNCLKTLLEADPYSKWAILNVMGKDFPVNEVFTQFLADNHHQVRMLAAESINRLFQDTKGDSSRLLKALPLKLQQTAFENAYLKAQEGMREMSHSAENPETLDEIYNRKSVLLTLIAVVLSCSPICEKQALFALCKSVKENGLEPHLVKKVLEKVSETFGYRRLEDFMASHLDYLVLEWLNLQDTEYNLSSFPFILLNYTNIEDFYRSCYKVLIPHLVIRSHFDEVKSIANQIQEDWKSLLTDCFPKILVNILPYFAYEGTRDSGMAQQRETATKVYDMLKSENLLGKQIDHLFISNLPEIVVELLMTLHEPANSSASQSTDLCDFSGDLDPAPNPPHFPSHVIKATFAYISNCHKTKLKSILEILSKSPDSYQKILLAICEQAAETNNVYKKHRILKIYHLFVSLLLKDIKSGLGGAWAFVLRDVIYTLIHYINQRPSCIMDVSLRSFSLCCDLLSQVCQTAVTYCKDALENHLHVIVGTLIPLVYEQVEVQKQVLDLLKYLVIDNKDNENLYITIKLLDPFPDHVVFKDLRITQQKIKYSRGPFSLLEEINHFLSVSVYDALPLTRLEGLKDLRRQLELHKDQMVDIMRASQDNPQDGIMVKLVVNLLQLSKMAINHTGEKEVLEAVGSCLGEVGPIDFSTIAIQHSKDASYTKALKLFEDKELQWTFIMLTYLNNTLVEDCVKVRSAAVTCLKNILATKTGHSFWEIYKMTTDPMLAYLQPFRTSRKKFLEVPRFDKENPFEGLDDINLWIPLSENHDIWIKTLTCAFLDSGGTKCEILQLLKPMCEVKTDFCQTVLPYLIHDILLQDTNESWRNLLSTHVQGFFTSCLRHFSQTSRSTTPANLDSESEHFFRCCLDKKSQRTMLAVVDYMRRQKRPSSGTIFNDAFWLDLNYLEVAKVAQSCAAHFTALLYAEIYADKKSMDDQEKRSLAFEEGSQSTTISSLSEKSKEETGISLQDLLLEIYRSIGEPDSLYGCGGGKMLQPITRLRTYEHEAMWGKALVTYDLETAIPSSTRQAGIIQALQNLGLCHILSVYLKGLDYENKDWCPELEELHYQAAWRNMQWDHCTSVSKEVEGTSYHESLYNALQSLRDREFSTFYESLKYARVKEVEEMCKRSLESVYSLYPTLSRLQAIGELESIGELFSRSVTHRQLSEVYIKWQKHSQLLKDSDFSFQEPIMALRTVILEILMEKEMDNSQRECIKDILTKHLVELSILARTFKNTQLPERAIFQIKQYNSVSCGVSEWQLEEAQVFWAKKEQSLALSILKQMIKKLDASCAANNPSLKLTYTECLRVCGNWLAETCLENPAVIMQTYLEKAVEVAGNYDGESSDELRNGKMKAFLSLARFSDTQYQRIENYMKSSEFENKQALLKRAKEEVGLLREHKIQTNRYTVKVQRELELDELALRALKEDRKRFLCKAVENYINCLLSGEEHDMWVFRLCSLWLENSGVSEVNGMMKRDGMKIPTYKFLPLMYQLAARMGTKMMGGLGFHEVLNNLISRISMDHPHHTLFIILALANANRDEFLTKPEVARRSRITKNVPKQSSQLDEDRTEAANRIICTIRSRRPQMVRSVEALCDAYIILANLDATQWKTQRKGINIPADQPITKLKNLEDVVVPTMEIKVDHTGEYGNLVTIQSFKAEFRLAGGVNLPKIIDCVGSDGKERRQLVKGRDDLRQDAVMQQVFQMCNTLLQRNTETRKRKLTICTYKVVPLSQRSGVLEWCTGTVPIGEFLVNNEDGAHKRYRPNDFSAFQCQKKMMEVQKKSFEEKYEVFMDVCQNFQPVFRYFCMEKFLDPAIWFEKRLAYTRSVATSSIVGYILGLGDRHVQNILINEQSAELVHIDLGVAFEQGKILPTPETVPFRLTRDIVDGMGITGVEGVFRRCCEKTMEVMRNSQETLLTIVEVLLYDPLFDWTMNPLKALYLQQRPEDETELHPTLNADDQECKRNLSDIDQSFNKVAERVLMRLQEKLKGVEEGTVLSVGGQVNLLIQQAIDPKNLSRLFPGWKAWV

Structure (SMILES) | IC50 (ATM) | IC50 (DNA-PK)
CC(C)NCCOc1ncc(-c2cc3c(cc2F)ncc2c3[C@]3(C[C@@H](c4cccnc4)C3)C(=O)N2C)cc1NS(C)(=O)=O [Example 437, trans-N-{5-(7′-Fluoro-3′-methyl-2′-oxo-3-(pyridin-3-yl)-2′,3′-dihydrospiro[cyclobutane-1,1′-pyrrolo[2,3-c]quinolin]-8′-yl)-2-(2-(isopropylamino)ethoxy)pyridin-3-yl)methanesulfonamide] | > 100 nM | 1 to 100 nM
CC(C)NCCOc1ncc(-c2cc3c(cc2F)ncc2c3[C@]3(C[C@H](c4ccncc4)C3)C(=O)N2C)cc1NS(C)(=O)=O [Example 438] | 1 to 100 nM | 1 to 100 nM
CC(C)NCCOc1ncc(-c2cc3c(cc2F)ncc2c3[C@]3(C[C@@H](c4ccncc4)C3)C(=O)N2C)cc1NS(C)(=O)=O [Example 439, trans-N-{5-(7′-Fluoro-3′-methyl-2′-oxo-3-(pyridin-4-yl)-2′,3′-dihydrospiro[cyclobutane-1,1′-pyrrolo[2,3-c]quinolin]-8′-yl)-2-(2-(isopropylamino)ethoxy)pyridin-3-yl)methanesulfonamide] | > 100 nM | 1 to 100 nM
CC(C)NCCOc1ncc(-c2cc3c(cc2F)ncc2c3[C@]3(C[C@H](c4cccc(=O)[nH]4)C3)C(=O)N2C)cc1NS(C)(=O)=O [Example 440, cis-N-(5-(7′-Fluoro-3′-methyl-2′-oxo-3-(6-oxo-1,6-dihydropyridin-2-yl)-2′,3′-dihydrospiro[cyclobutane-1,1′-pyrrolo[2,3-c]quinolin]-8′-yl)-2-(2-(isopropylamino)ethoxy)pyridin-3-yl)methanesulfonamide] | > 100 nM | 1 to 100 nM
CC(C)NCCOc1ncc(-c2cc3c4c(cnc3cc2F)N(C)C(=O)C42CC(C)(C)C2)cc1NS(C)(=O)=O [Example 446, N-(5-(7′-Fluoro-3,3,3′-trimethyl-2′-oxo-2′,3′-dihydrospiro[cyclobutane-1,1′-pyrrolo[2,3-c]quinolin]-8′-yl)-2-(2-(isopropylamino)ethoxy)pyridin-3-yl)methanesulfonamide] | 1 to 100 nM | < 0.5 nM
CC(C)NCCOc1ncc(-c2cc3c(cc2F)ncc2c3[C@]3(C[C@H](C)C3)C(=O)N2C)cc1NS(C)(=O)=O [Example 448, cis-N-(5-(7′-Fluoro-3,3′-dimethyl-2′-oxo-2′,3′-dihydrospiro[cyclobutane-1,1′-pyrrolo[2,3-c]quinolin]-8′-yl)-2-(2-(isopropylamino)ethoxy)pyridin-3-yl)methanesulfonamide] | 1 to 100 nM | 1 to 100 nM
CC(C)NCCOc1ncc(-c2cc3c(cc2F)ncc2c3[C@]3(C[C@H](Cc4ccccc4)C3)C(=O)N2C)cc1NS(C)(=O)=O [Example 451, cis-N-(5-(3-Benzyl-7′-fluoro-3′-methyl-2′-oxo-2′,3′-dihydrospiro[cyclobutane-1,1′-pyrrolo[2,3-c]quinolin]-8′-yl)-2-(2-(isopropylamino)ethoxy)pyridin-3-yl)methanesulfonamide] | 1 to 100 nM | 1 to 100 nM
CC(C)NCCOc1ncc(-c2cc3c(cc2F)ncc2c3[C@]3(C[C@H](C(C)(C)O)C3)C(=O)N2C)cc1NS(C)(=O)=O [Example 456, cis-N-(5-(7′-Fluoro-3-(2-hydroxypropan-2-yl)-3′-methyl-2′-oxo-2′,3′-dihydrospiro[cyclobutane-1,1′-pyrrolo[2,3-c]quinolin]-8′-yl)-2-(2-(isopropylamino)ethoxy)pyridin-3-yl)methanesulfonamide] | 1 to 100 nM | 1 to 100 nM
CC(C)NCCOc1ncc(-c2cc3c(cc2F)ncc2c3[C@]3(C[C@H](Nc4ccccc4)C3)C(=O)N2C)cc1NS(C)(=O)=O [Example 459, cis-N-(5-(7′-Fluoro-3′-methyl-2′-oxo-3-(phenylamino)-2′,3′-dihydrospiro[cyclobutane-1,1′-pyrrolo[2,3-c]quinolin]-8′-yl)-2-(2-(isopropylamino)ethoxy)pyridin-3-yl)methanesulfonamide] | 1 to 100 nM | 0.5 to 1 nM
CC(C)NCCOc1ncc(-c2cc3c(cc2F)ncc2c3[C@]3(C[C@@H](Nc4ccccc4)C3)C(=O)N2C)cc1NS(C)(=O)=O [Example 460, trans-N-(5-(7′-Fluoro-3′-methyl-2′-oxo-3-(phenylamino)-2′,3′-dihydrospiro[cyclobutane-1,1′-pyrrolo[2,3-c]quinolin]-8′-yl)-2-(2-(isopropylamino)ethoxy)pyridin-3-yl)methanesulfonamide hydrochloride] | 1 to 100 nM | 1 to 100 nM
CC(C)NCCOc1ncc(-c2cc3c(cc2F)ncc2c3[C@]3(C[C@H](Nc4ccc(Cl)cc4)C3)C(=O)N2C)cc1NS(C)(=O)=O [Example 461, cis-N-(5-(3-((4-Chlorophenyl)amino)-7′-fluoro-3′-methyl-2′-oxo-2′,3′-dihydrospiro[cyclobutane-1,1′-pyrrolo[2,3-c]quinolin]-8′-yl)-2-(2-(isopropylamino)ethoxy)pyridin-3-yl)methanesulfonamide] | 1 to 100 nM | 1 to 100 nM
CC(C)NCCOc1ncc(-c2cc3c(cc2F)ncc2c3[C@]3(C[C@H](N(C)c4ccccc4)C3)C(=O)N2C)cc1NS(C)(=O)=O [Example 463, cis-N-(5-(7′-Fluoro-3′-methyl-3-(methyl(phenyl)amino)-2′-oxo-2′,3′-dihydrospiro[cyclobutane-1,1′-pyrrolo[2,3-c]quinolin]-8′-yl)-2-(2-(isopropylamino)ethoxy)pyridin-3-yl)methanesulfonamide] | 1 to 100 nM | < 0.5 nM
CN(C)CCCOc1ncc(-c2ccc3ncc4c(c3c2)C2(CN(C)C2)C(=O)N4C)cc1NS(C)(=O)=O [Example 478, N-(5-(1,3′-Dimethyl-2′-oxo-2′,3′-dihydrospiro[azetidine-3,1′-pyrrolo[2,3-c]quinolin]-8′-yl)-2-(3-(dimethylamino)propoxy)pyridin-3-yl)methanesulfonamide] | 1 to 100 nM | 1 to 100 nM
CCS(=O)(=O)Nc1cc(-c2cc3c4c(cnc3cc2F)N(C)C(=O)C42CN(C(C)C)C2)cnc1OCCNC(C)C [Example 483] | 1 to 100 nM | 0.5 to 1 nM
CC(C)NCCOc1ncc(-c2cc3c4c(cnc3cc2F)N(C)C(=O)C42CN(C(C)C)C2)cc1NS(=O)(=O)C1CC1 [Example 484, N-(5-(7′-Fluoro-1-isopropyl-3′-methyl-2′-oxo-2′,3′-dihydrospiro[azetidine-3,1′-pyrrolo[2,3-c]quinolin]-8′-yl)-2-(2-(isopropylamino)ethoxy)pyridin-3-yl)cyclopropanesulfonamide] | 1 to 100 nM | 1 to 100 nM
CC(C)NCCOc1ncc(-c2cc3c4c(cnc3cc2F)N(C)C(=O)C42CN(C(C)C)C2)cc1NS(=O)(=O)C(C)C [Example 485, N-(5-(7′-Fluoro-1-isopropyl-3′-methyl-2′-oxo-2′,3′-dihydrospiro[azetidine-3,1′-pyrrolo[2,3-c]quinolin]-8′-yl)-2-(2-(isopropylamino)ethoxy)pyridin-3-yl)propane-2-sulfonamide] | 1 to 100 nM | 1 to 100 nM
CC(C)N1CC2(C1)C(=O)N(C)c1cnc3cc(F)c(-c4cnc(N5CCC(N6CCCCC6)CC5)c(NS(C)(=O)=O)c4)cc3c12 [Example 486] | 1 to 100 nM | 1 to 100 nM
CC(C)NCCOc1ncc(-c2cc3c4c(cnc3cc2F)N(C)C(=O)C42CN(C3CCC3)C2)cc1NS(C)(=O)=O [Example 497, N-(5-(1-Cyclobutyl-7′-fluoro-3′-methyl-2′-oxo-2′,3′-dihydrospiro[azetidine-3,1′-pyrrolo[2,3-c]quinolin]-8′-yl)-2-(2-(isopropylamino)ethoxy)pyridin-3-yl)methanesulfonamide hydrochloride] | 1 to 100 nM | 1 to 100 nM
CC(C)NCCOc1ncc(-c2cc3c4c(cnc3cc2F)N(C)C(=O)C42CN(C3CCCC3)C2)cc1NS(C)(=O)=O [Example 498, N-(5-(1-Cyclopentyl-7′-fluoro-3′-methyl-2′-oxo-2′,3′-dihydrospiro[azetidine-3,1′-pyrrolo[2,3-c]quinolin]-8′-yl)-2-(2-(isopropylamino)ethoxy)pyridin-3-yl)methanesulfonamide] | 1 to 100 nM | 0.5 to 1 nM
CC(C)NCCOc1ncc(-c2cc3c4c(cnc3cc2F)N(C)C(=O)C42CN(c3ccccc3)C2)cc1NS(C)(=O)=O [Example 519, N-(5-(7′-Fluoro-3′-methyl-2′-oxo-1-phenyl-2′,3′-dihydrospiro[azetidine-3,1′-pyrrolo[2,3-c]quinolin]-8′-yl)-2-(2-(isopropylamino)ethoxy)pyridin-3-yl)methanesulfonamide hydrochloride] | 1 to 100 nM | < 0.5 nM
Cc1ncc(S(=O)(=O)Nc2cc(-c3cc4c5c(cnc4cc3F)N(C)C(=O)C53CN(c4ccccc4)C3)cnc2OCCNC(C)C)s1 [Example 520, N-(5-(7′-Fluoro-3′-methyl-2′-oxo-1-phenyl-2′,3′-dihydrospiro[azetidine-3,1′-pyrrolo[2,3-c]quinolin]-8′-yl)-2-(2-(isopropylamino)ethoxy)pyridin-3-yl)-2-methylthiazole-5-sulfonamide] | 1 to 100 nM | 1 to 100 nM
CCS(=O)(=O)Nc1cc(-c2cc3c4c(cnc3cc2F)N(C)C(=O)C42CN(c3ccccc3)C2)cnc1OCCNC(C)C [Example 522, N-(5-(7′-Fluoro-3′-methyl-2′-oxo-1-phenyl-2′,3′-dihydrospiro[azetidine-3,1′-pyrrolo[2,3-c]quinolin]-8′-yl)-2-(2-(isopropylamino)ethoxy)pyridin-3-yl)ethanesulfonamide hydrochloride] | 1 to 100 nM | 0.5 to 1 nM
